The conditions of data set [1]: phase I, cited from earlier work; for Cmax: read-out: Peak serum concentration (Cmax).
For a further data set, the target named is PKCβ1 (Homo sapiens, UniProt P05771). Briefly: Surface plasmon resonance (SPR) binding to immobilized PKCβ1. The settings on record: 100–8000 nM ENDX; no saturation, accurate KD could not be established. The method, then: Binding assays were performed at 25 °C on a Biacore T200 biosensor (GE healthcare). Purified PKCβ1 protein were immobilized on a CM5 S sensor chip using amino coupling and immobilization buffer (10 mM HEPES, 150 mM NaCl, pH 7.4, P20 0.01% (w/w)) and acetate pH 5.0 at a flow rate of 10 µL/min and reaching 10,000-12,000 resonance units (RUs). ENDX at concentrations ranging from 0–8000 nM in phosphate buffer (Gibco) with 2% DMSO (v/v) and 0.01% (w/w) P20 were run over the chips at a flow rate of 50 µl/min for 30 s. Binding kinetics were derived from sensograms using Biacore BIA evaluation software (GE). Sensograms were subtracted for background contributions, and affinity constants were derived using a steady-state affinity fitting of a 1:1 interaction model.
Sequence of PKCβ1 (P05771 whole entry): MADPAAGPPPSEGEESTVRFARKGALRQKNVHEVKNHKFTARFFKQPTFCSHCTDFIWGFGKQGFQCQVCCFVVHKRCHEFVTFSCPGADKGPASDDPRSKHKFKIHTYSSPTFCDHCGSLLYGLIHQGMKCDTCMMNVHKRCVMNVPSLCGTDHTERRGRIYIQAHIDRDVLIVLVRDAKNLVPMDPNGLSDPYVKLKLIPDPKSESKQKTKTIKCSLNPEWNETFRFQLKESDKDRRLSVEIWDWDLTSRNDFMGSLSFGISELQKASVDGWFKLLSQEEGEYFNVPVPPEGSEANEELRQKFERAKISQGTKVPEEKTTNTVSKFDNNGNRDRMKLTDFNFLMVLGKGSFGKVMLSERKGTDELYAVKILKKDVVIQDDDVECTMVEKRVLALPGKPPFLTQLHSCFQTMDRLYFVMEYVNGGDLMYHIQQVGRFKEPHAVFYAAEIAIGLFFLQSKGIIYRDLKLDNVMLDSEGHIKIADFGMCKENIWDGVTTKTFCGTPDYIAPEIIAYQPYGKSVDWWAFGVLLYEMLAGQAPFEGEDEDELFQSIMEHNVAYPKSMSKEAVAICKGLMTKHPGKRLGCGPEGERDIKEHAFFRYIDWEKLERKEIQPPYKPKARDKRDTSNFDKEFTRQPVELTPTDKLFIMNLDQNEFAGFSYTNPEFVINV
For orientation: SPR reads the build-up and loss of mass on a sensor chip optically.

A further data set deals with MCF7AC1^caAKT cells. Description: IncuCyte Annexin V apoptosis assay, MCF7AC1^caAKT. In kind it is cell-based, human. The settings on record: CSS medium, 5 µM, 48 h. The method, then:
MCF7AC1 and T47D-LTED cells were plated at a density of 2000 cells per well in CSS medium for 24 h. Cells were then co-treated for 48 h with vehicle or drug, IncuCyte Annexin V green reagent (#4642, 1:300), an early-stage apoptosis marker, and IncuCyte NucLight rapid red reagent (#4717, 1:500), a dye that stains all cell nuclei red, in CSS medium. MCF7AC1^caAKT cells were plated at a cell density of 2000 cells per well in CSS medium in the absence or presence of cumate for 48 h and then co-treated with vehicle or drug, Annexin V green and NucLight rapid red reagents in the absence or presence of cumate for an additional 48 h in CSS medium.
Molecular cloning was performed for the generation of catalytically active AKT-expressing MCF7AC1 cells. For this purpose, vector pCDNA3.1+ containing an N-terminal SRCMyr signal AKT ORF and C-terminal hemagglutinin (HA)-tag was provided as a kind gift from Dr. Haojie Huang, Ph.D, Mayo Clinic, Rochester, MN. The constitutively active AKT (caAKT)-HA insert was excised using NheI/EcoRV restriction digest, gel purified and cloned into the NheI//PmeI site of an SBI (System biosciences, Palo Alto, CA) vector with modified restriction sites. Sanger sequencing was performed by Azenta/Genewiz, (South Plainfield, NJ) to confirm in frame sequence. […]

For data set [2] the following is noted: mice, cited from earlier work; for Cmax: read-out: Plasma Cmax.
The next data set has as its system MCF7AC1 cells. Briefly: Crystal violet cell viability / proliferation assay, MCF7AC1. As to conditions: CSS medium, 48 h, 0 to 10 µM tested. In kind it is cell-based, human. The method, then: Fig. 1 Z-endoxifen (ENDX) effects on cell viability and apoptosis in estrogen deprived ERα+ /HER2- MCF7AC1 cells. a Cells grown in CSS medium were treated with vehicle control or the indicated ENDX concentrations for […]. Cell viability was assessed by the crystal violet assay. b Cells were co-treated with vehicle control or the indicated ENDX concentrations, IncuCyte Annexin V green and NucLight red reagents in CSS medium for 48 h. […] Data represents the mean of six wells per treatment performed as biological duplicates ± s.d. **p ≤ 0.01; ***p ≤ 0.001; ****p ≤ 0.0001 by one-way ANOVA.
Cells were plated at a density of 2000 cells per well. Cell viability of (i) vehicle or drug treated MCF7AC1 and T47D-LTED cells in CSS medium, (ii) siNT or siPKCβ-transfected MCF7AC1 cells in CSS medium and (iii) T47D cells in FBS versus CSS medium were analyzed by crystal violet staining assay after 6 days of treatment or siRNA transfection as previously described. Cell viability was calculated as the average absorbance of the drug treated cells divided by the average absorbance of the vehicle treated cells × 100.

The target in a further data set is PKC beta 2 (PKCb2) (Homo sapiens, UniProt P05771). Description: In vitro kinase assay, PKC beta 2. It counts as biochemical. The settings on record: 10 μM ATP. From the text:
(§1) Supplementary Table 4. In vitro kinase assay showing the IC 50 concentration of ENDX and
(§2) of the 12 PKC family members.
(§3) (1 picture or pasted object on this page, not shown here)

A further data set has as its target PKC alpha (PKCa) (Homo sapiens, UniProt P17252). Briefly: In vitro kinase assay, PKC alpha. The settings on record: 10 μM ATP. In kind it is biochemical.
Text: as §1, §2, §3

Each structure is given as a SMILES string. Values joined by “and” are separate entries in the source; they are usually repeats but may differ in a detail not shown here. Equal entries are not always repeated. Where two headings read alike, the source gives them in different places.

The term IC50 denotes the concentration that inhibits the measured activity by half.

Sequence of PKC beta 2 (PKCb2) (P05771 1-673 isoform P05771-2): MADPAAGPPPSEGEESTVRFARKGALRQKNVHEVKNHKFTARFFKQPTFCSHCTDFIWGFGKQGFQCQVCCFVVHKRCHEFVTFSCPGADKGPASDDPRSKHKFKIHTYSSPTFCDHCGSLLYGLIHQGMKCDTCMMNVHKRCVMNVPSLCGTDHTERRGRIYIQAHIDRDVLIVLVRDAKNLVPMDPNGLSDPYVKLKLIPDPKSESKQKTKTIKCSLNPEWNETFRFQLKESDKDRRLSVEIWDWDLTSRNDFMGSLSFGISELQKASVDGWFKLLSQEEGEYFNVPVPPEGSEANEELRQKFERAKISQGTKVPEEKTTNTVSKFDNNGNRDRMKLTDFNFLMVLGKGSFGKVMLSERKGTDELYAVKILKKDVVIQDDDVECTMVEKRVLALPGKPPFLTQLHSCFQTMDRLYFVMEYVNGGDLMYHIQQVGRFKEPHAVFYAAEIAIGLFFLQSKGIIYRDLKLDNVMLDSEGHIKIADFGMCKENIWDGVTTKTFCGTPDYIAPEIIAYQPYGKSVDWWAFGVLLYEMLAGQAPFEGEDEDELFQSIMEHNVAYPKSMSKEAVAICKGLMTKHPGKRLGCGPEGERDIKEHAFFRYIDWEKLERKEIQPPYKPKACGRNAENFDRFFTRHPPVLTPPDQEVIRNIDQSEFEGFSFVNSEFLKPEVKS

Take `CC/C(=C(\c1ccc(O)cc1)c1ccc(OCCNC)cc1)c1ccccc1` [ENDX, Z-endoxifen]: the “Peak serum concentration (Cmax)” value in data set [1] (Day 28, 80 mg/day) is 913 ± 142 ng/mL; in data set [1] (Day 28, 200 mg/day), 1641 ± 830 ng/mL. For the same compound, the Cmax in data set [1] (Day 28, 80 mg/day) was 2440 ± 380 nM; in data set [1] (Day 28, 200 mg/day), 4390 ± 2220 nM; in data set [2] (single dose 25 mg/kg), 280 ± 260 nM; in data set [2] (single dose 75 mg/kg), 1770 ± 1370 nM. For the same compound, the “Binding to PKCβ1 by SPR” value at PKCβ1 is on record as “binds PKCβ1”. Further, the Effect on apoptosis entry in the data set on MCF7AC1^caAKT cells (absence of cumate) was “induced apoptosis”. Also, in the data set on MCF7AC1^caAKT cells (presence of cumate), the “Effect of caAKT expression on ENDX-induced apoptosis” value is listed as “significantly diminished the ability of ENDX to induce apoptosis”. Also, the Plasma concentration in data set [2] (25 mg/kg for five consecutive days, 25 mg/kg) is 73.1 ± 16.8 ng/ml and 0.20 ± 0.04 µM; in data set [2] (100 mg/kg for five consecutive days, 100 mg/kg), 1700 ± 60 ng/ml and 4.55 ± 0.16 µM. Moreover, the “Plasma Cmax” value in data set [2] (single dose 25 mg/kg) was 103 ± 97 ng/mL; in data set [2] (single dose 75 mg/kg), 660 ± 511 ng/mL. Also, in the data set with MCF7AC1 cells, the “Concentrations that significantly reduced cell viability” value is on record as ≥ 2.5 µM. For the same compound, the figures for the half-inhibitory concentration (IC50) at PKC beta 2 (PKCb2) and on PKC alpha (PKCa) were 43.3 µM and > 50 µM, respectively.

The record behind these values is paper PMC10730845, “Endoxifen downregulates AKT phosphorylation through protein kinase C beta 1 inhibition in ERα+ breast cancer” (NPJ Breast Cancer, 2023).
